We go through three compounds from ChEMBL document CHEMBL1208782, “Synthesis and pharmacological validation of a novel series of non-steroidal FXR agonists” (Bioorg Med Chem Lett, 2010).

Usually EC50 stands for the midpoint of the concentration-response curve.

What all share (type): functional, cell-based
For assay [1], the target named is T1, Retinoic acid receptor alpha (Homo sapiens) (UniProt P10276).
T1 sequence (whole entry): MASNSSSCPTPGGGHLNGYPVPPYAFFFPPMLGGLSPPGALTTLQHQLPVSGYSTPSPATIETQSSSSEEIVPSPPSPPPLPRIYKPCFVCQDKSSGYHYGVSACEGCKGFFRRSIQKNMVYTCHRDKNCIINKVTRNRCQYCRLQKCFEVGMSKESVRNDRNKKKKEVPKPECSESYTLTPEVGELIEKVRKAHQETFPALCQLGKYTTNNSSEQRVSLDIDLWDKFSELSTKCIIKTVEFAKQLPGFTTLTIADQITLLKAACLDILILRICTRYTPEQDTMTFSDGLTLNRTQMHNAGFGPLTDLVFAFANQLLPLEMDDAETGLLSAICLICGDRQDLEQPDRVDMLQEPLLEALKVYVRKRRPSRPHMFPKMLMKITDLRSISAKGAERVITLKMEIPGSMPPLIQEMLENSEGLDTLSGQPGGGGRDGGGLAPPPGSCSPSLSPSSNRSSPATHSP
The assay can be described thus: Agonist activity at RARalpha-LBD expressed in HEK293 cells assessed as Gal4-DBD interaction by cellular mammalian one hybrid assay relative to retinoic acid.

Assay [2] concerns the target T2, Mineralocorticoid receptor (Homo sapiens) (UniProt P08235).
T2 sequence (whole entry): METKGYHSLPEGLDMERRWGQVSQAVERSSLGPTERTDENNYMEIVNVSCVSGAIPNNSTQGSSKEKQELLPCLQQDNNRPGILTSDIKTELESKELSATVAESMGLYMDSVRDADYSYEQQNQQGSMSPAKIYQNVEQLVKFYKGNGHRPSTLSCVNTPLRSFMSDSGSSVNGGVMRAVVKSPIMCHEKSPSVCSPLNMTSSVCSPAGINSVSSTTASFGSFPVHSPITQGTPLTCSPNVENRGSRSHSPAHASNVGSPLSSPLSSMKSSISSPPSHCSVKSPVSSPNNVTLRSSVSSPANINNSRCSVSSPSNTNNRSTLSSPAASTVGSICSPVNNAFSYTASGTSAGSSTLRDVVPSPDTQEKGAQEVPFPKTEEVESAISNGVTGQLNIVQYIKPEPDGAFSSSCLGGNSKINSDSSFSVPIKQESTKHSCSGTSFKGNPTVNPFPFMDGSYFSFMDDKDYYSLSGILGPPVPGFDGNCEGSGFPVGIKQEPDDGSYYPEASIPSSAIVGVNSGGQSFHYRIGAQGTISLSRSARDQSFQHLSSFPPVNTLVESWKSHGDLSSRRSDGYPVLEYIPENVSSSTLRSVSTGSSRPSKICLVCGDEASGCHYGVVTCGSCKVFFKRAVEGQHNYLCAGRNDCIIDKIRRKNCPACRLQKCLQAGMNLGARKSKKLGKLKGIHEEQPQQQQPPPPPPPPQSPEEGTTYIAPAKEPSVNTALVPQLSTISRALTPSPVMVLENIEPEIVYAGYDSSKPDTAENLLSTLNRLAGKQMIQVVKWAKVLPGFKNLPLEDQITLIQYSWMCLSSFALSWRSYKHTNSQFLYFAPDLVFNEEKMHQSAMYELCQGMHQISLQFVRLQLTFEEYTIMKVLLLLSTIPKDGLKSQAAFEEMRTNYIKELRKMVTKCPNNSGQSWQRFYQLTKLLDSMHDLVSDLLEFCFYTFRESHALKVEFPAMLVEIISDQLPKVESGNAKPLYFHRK
The assay can be described thus: Agonist activity at mineralocorticoid receptor-LBD expressed in HEK293 cells assessed as Gal4-DBD interaction by cellular mammalian one hybrid assay relative to mineralocorticoid.

In the next assay the target is T3, Androgen receptor (Homo sapiens, UniProt P10275).
T3 sequence (P10275 whole entry): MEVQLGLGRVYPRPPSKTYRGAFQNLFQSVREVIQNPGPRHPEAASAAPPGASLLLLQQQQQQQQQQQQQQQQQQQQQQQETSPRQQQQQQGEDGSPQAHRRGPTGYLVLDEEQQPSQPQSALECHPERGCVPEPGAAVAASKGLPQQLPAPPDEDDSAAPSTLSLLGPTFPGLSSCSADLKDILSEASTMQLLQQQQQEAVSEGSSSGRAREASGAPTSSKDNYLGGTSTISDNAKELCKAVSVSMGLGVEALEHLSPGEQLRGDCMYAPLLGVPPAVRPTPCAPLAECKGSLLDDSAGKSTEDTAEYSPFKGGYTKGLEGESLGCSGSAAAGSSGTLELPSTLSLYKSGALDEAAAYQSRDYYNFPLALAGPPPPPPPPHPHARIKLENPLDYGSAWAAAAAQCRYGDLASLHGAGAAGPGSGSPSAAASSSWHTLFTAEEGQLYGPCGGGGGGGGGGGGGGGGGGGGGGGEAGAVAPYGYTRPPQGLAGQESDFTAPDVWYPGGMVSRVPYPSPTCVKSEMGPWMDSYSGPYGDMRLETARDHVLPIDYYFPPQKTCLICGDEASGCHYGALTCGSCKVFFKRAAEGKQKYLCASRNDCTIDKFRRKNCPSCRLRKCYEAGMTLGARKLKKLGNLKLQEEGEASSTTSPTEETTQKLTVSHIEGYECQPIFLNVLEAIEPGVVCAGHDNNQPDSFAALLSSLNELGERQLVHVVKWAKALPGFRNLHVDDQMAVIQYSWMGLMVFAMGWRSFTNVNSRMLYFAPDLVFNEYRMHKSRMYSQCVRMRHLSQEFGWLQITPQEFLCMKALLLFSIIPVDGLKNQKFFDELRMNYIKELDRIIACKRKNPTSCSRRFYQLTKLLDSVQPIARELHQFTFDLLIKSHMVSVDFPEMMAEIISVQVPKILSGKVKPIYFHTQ
The assay can be described thus: Agonist activity at androgen receptor-LBD expressed in HEK293 cells assessed as Gal4-DBD interaction by cellular mammalian one hybrid assay.

In assay [3] the target is T4, Retinoic acid receptor gamma (Homo sapiens, UniProt P13631).
T4 sequence (P13631 whole entry): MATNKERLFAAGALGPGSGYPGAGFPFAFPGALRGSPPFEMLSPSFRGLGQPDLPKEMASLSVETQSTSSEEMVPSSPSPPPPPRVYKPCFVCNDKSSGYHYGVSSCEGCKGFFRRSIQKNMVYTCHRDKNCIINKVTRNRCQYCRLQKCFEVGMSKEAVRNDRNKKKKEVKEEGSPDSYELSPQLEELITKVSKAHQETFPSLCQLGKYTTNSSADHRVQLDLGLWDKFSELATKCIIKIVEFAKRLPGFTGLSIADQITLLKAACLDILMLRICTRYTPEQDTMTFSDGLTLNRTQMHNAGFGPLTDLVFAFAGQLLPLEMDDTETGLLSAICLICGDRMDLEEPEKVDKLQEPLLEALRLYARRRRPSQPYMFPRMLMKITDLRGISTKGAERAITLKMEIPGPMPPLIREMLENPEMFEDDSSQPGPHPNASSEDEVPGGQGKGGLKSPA
The assay can be described thus: Agonist activity at RARgamma-LBD expressed in HEK293 cells assessed as Gal4-DBD interaction by cellular mammalian one hybrid assay.

The target of assay [4] is T5, Retinoic acid receptor alpha (Homo sapiens, UniProt P10276).
T5 sequence (P10276 whole entry): T1 sequence (whole entry)
The assay can be described thus: Agonist activity at RARalpha-LBD expressed in HEK293 cells assessed as Gal4-DBD interaction by cellular mammalian one hybrid assay.

`CN(Cc1ccc(C(=O)O)cc1)c1ccc(OCc2c(-c3c(Cl)cccc3Cl)noc2C2CC2)nc1C(F)(F)F`: the Efficacy in assay [1] and in assay [2] was 0% each time. Besides, the EC50 (at Androgen receptor; in assay [3]; in assay [4]) was above 10 µM in each case.

In the case of `CN(Cc1cccc(C(=O)O)c1)c1ccc(OCc2c(-c3c(Cl)cccc3Cl)noc2C2CC2)nc1C(F)(F)F`, the Efficacy in assay [1] and in assay [2] was 0% in each case. In addition, the EC50 (on Androgen receptor; in assay [3]; in assay [4]) was above 10 µM each time.

Turning to `CC(C)c1onc(-c2c(Cl)cccc2Cl)c1COc1ccc(N(C)Cc2ccc(C(=O)O)cc2)c(C(F)(F)F)n1`, the Efficacy in assay [1] and in assay [2] was 0% each time. Further, the EC50 (on Androgen receptor; in assay [3]; in assay [4]) was above 10 µM each time.
